Experimental data reported in US20260297042A1, “BIARYLAMIDE DERIVATIVES AND THEIR USE AS PKMYT1 INHIBITORS” (CANCER RESEARCH TECHNOLOGY LIMITED, priority 2023, published 2026).

How the values were obtained:
Human PKMYT1 = biological target: T1, Human PKMYT1 (Homo sapiens, UniProt Q99640); test: PKMYT1 biochemical ADP-Glo enzymatic assay; conditions: PKMYT1 kinase domain 15 nM; ADP-Glo; banded values
T1 construct: Human PKMYT1 75-362 was cloned as a TEV cleavable 6xHis fusion; 6xHis (TEV cleavable) (cleaved yes); made in house; host or cells: bacterial cells
T1 sequence (Q99640 75-362): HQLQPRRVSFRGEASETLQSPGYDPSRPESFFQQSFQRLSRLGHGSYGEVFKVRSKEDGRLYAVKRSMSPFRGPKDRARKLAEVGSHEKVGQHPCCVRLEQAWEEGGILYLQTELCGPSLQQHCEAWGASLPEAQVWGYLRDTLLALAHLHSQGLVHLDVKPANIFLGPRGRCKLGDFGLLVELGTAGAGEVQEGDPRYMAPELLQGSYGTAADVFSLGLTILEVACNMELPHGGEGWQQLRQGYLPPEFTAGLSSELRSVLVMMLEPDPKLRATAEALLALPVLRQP
Procedure, shortened: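 Measures inhibition of PKMYT1 autonomous ATP hydrolysis: bacterially expressed human enzyme (75-362, tag cleaved) at 15 nM with 500 µM ATP for 60 min at 26 °C, then ADP-Glo Max detection. IC50s accepted only when replicates agreed within 3-fold and curve r2 exceeded 0.9.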

WEE1 = biological target: T2, WEE1 (Homo sapiens, UniProt P30291); test: Selectivity versus WEE1 assay (ADP-Glo enzymatic assay); type: biochemical; conditions: for IC50: WEE1 15 nM, ADP-Glo, banded values; for PKMYT1 vs. WEE1 selectivity: fold difference in selectivity for PKMYT1 over WEE1, banded
T2 construct: purchased Thermo Fisher PR7373A
Procedure, shortened: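 Same format as the PKMYT1 assay: WEE1 at 15 nM final with 30 µM ATP, 60 min at 26° C, ADP-Glo luminescence detection, IC50 by dose-response fitting.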

OVCAR 3 cells = test: Cancer cell line proliferation assay, ATP-based cell viability (Cell Titre Glow), OVCAR 3 (CCNE1-amplified); conditions: KYSE30 (normal CCNE1) GI50 vs. OVCAR 3 (CCNE1-amplified) GI50
Procedure, shortened: (§1)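 Cells were treated with PKMYT1 inhibitors, then proliferation was assessed with CellTiter-Glo and luminescence read. GI50 values were fitted from the resulting data.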

KYSE-30 cells = test: Cancer cell line proliferation assay, ATP-based cell viability (Cell Titre Glow), KYSE-30 (normal CCNE1); conditions: Homo sapiens, KYSE-30 cells (normal CCNE1), concentration that achieves 50% cell growth proliferation inhibition, read-out: KYSE30 Gl50
Procedure, shortened: as §1

[1] = biological target: T3, Cellular PKMYT1 Biomarker CDK1 pT14 (Homo sapiens, UniProt Q99640); test: Inhibition of cellular PKMYT1 biomarker CDK1 pT14 in OVCAR 3 cells (immunoblot); type: cell-based; conditions: 20 hours incubation
T3 construct: read-out CDK1 phospho-T14 immunoblot
T3 sequence (Q99640 1-499): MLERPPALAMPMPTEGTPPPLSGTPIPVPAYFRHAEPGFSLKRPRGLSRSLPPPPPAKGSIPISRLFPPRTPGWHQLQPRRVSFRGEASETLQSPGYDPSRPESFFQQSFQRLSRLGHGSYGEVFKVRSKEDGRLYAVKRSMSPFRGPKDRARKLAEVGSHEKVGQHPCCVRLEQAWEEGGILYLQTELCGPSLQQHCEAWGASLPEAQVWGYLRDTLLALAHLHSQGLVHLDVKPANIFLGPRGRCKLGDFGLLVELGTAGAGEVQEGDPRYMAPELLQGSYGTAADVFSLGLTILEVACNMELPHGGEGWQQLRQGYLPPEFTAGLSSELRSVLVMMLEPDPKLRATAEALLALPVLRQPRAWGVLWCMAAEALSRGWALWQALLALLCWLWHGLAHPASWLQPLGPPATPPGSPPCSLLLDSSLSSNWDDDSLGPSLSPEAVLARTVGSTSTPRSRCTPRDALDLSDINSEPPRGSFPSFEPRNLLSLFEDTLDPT
Procedure, shortened: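 Confluent OVCAR 3 cells treated with a compound concentration range for 20 h at 37 °C. Lysates analysed by automated capillary immunoblot for CDK1 phospho-T14, with vinculin, fluorescence detection; IC50 by regression.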

T2 sequence (P30291 whole entry): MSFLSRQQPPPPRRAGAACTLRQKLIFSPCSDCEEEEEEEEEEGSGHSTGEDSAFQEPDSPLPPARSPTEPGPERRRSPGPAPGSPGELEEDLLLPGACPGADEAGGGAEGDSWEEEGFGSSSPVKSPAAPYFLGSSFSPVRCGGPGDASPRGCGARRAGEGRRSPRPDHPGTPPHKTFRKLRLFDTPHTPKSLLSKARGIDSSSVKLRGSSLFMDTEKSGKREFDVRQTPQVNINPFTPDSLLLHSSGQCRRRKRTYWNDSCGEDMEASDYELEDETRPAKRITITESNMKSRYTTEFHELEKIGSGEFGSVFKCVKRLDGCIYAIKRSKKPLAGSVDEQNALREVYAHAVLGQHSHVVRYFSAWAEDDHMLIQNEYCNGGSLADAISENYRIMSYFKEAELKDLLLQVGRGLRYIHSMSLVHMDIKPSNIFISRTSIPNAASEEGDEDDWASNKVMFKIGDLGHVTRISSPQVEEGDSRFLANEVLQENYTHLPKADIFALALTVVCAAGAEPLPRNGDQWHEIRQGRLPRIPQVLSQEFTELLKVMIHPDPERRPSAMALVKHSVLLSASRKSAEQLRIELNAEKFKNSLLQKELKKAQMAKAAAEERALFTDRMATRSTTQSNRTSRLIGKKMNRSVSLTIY

| SMILES | IC50 (Human PKMYT1) | IC50 (WEE1) | PKMYT1 vs. WEE1 selectivity (WEE1) | IC50 [1] | Selectivity ratio KYSE30 Gl50 vs. OVCAR3 Gl50 (OVCAR 3 cells) | GI50 (KYSE-30 cells) |
| --- | --- | --- | --- | --- | --- | --- |
| Cc1cccc(Nc2ncc(C(=O)Nc3c(C)ccc(O)c3C)s2)n1 [BAA-407, N-(3-hydroxy-2,6-dimethylphenyl)-2-((6-methylpyridin-2-yl)amino)thiazole-5-carboxamide] | < 0.05 µM | 1 to 11 µM | X (100-<1000 fold) | < 0.1 µM | Y (>20 fold) | > 5 µM |
| Cc1ccc(O)c(C)c1NC(=O)c1cnc(Nc2cccc(C3CC3)n2)s1 [BAA-409, 2-((6-cyclopropylpyridin-2-yl)amino)-N-(3-hydroxy-2,6-dimethylphenyl)thiazole-5-carboxamide] | < 0.05 µM | 1 to 11 µM | X (100-<1000 fold) | < 0.1 µM | Y (>20 fold) | 0.5 to 5 µM |
| Cc1ccc(O)c(C)c1NC(=O)c1cnc(Nc2nc(N3CCN(C)CC3)ccc2Cl)s1 [BAA-414, 2-((3-chloro-6-(4-methylpiperazin-1-yl)pyridin-2-yl)amino)-N-(3-hydroxy-2,6-dimethylphenyl)thiazole-5-carboxamide] | < 0.05 µM | 1 to 11 µM | X (100-<1000 fold) | < 0.1 µM | Y (>20 fold) | 0.5 to 5 µM |
| Cc1ccc(F)c(Nc2ncc(C(=O)Nc3c(C)ccc(O)c3C)s2)n1 [BAA-420, 2-((3-fluoro-6-methylpyridin-2-yl)amino)-N-(3-hydroxy-2,6-dimethylphenyl)thiazole-5-carboxamide] | < 0.05 µM | > 11 µM | Y (1000-5000 fold) | < 0.1 µM | Y (>20 fold) | 0.5 to 5 µM |
| Cc1ccc(O)c(C)c1NC(=O)c1cnc(Nc2cccc(N3CCN(C)CC3)n2)s1 [BAA-423, N-(3-hydroxy-2,6-dimethylphenyl)-2-((6-(4-methylpiperazin-1-yl)pyridin-2-yl)amino)thiazole-5-carboxamide] | < 0.05 µM | 1 to 11 µM | W (10-<100 fold) | < 0.1 µM | Y (>20 fold) | 0.5 to 5 µM |
| COc1ccc(F)c(Nc2ncc(C(=O)Nc3c(C)ccc(O)c3C)s2)n1 [BAA-425, 2-((3-fluoro-6-methoxypyridin-2-yl)amino)-N-(3-hydroxy-2,6-dimethylphenyl)thiazole-5-carboxamide] | < 0.05 µM | > 11 µM | Y (1000-5000 fold) | < 0.1 µM | Y (>20 fold) | 0.5 to 5 µM |
| CCN(C(=O)Cc1cccc(Nc2ncc(C(=O)Nc3c(C)ccc(O)c3C)s2)n1)C1CC1 [BAA-426, 2-((6-(2-(Cyclopropyl(ethyl)amino)-2-oxoethyl)pyridin-2-yl)amino)-N-(3-hydroxy-2,6-dimethylphenyl)thiazole-5-carboxamide] | < 0.05 µM | > 11 µM | Z (>5000 fold) | < 0.1 µM | Y (>20 fold) | 0.5 to 5 µM |
| Cc1ccc(O)c(C)c1NC(=O)c1cnc(Nc2cccc(CC(=O)N(C3CC3)C3CC3)n2)s1 [BAA-427, 2-((6-(2-(Dicyclopropylamino)-2-oxoethyl)pyridin-2-yl)amino)-N-(3-hydroxy-2,6-dimethylphenyl)thiazole-5-carboxamide] | < 0.05 µM | > 11 µM | Z (>5000 fold) | < 0.1 µM | Y (>20 fold) | > 5 µM |

The next lines start with results.

| IC50 (Human PKMYT1) | IC50 (WEE1) | PKMYT1 vs. WEE1 selectivity (WEE1) | IC50 [1] | SMILES | Selectivity ratio KYSE30 Gl50 vs. OVCAR3 Gl50 (OVCAR 3 cells) | GI50 (KYSE-30 cells) |
| --- | --- | --- | --- | --- | --- | --- |
| < 0.05 µM | 1 to 11 µM | W (10-<100 fold) | < 0.1 µM | Cc1ccc(O)c(C)c1NC(=O)c1cnc(Nc2cccc(N(C)CCC#N)n2)s1 [BAA-401, 2-((6-((2-cyanoethyl)(methyl)amino)pyridin-2-yl)amino)-N-(3-hydroxy-2,6-dimethylphenyl)thiazole-5-carboxamide] | Y (>20 fold) | 0.5 to 5 µM |
| < 0.05 µM | 0.05 to 1 µM | W (10-<100 fold) | < 0.1 µM | Cc1ccc(O)c(C)c1NC(=O)c1cnc(Nc2cc(N3CCOCC3)ccn2)s1 [BAA-402, N-(3-hydroxy-2,6-dimethylphenyl)-2-((4-morpholinopyridin-2-yl)amino)thiazole-5-carboxamide] | Y (>20 fold) | 0.5 to 5 µM |
| < 0.05 µM | 1 to 11 µM | X (100-<1000 fold) | < 0.1 µM | Cc1ccc(O)c(C)c1NC(=O)c1cnc(Nc2nc(N3CCOCC3)ccc2Cl)s1 [BAA-410, 2-((3-chloro-6-morpholinopyridin-2-yl)amino)-N-(3-hydroxy-2,6-dimethylphenyl)thiazole-5-carboxamide] | Y (>20 fold) | 0.5 to 5 µM |
| < 0.05 µM | > 11 µM | X (100-<1000 fold) | 0.1 to 1 µM | Cc1ccc(O)c(C)c1NC(=O)c1cnc(Nc2cccc(N(C)C)n2)s1 [BAA-417, 2-((6-(dimethylamino)pyridin-2-yl)amino)-N-(3-hydroxy-2,6-dimethylphenyl)thiazole-5-carboxamide] | Y (>20 fold) | 0.5 to 5 µM |
| < 0.05 µM | 1 to 11 µM | X (100-<1000 fold) | < 0.1 µM | COc1ccnc(Nc2ncc(C(=O)Nc3c(C)ccc(O)c3C)s2)c1 [BAA-418, N-(3-hydroxy-2,6-dimethylphenyl)-2-((4-methoxypyridin-2-yl)amino)thiazole-5-carboxamide] | Y (>20 fold) | 0.5 to 5 µM |
| < 0.05 µM | > 11 µM | Y (1000-5000 fold) | 0.1 to 1 µM | Cc1cc(F)cnc1Nc1ncc(C(=O)Nc2c(C)ccc(O)c2C)s1 [BAA-419, 2-((5-fluoro-3-methylpyridin-2-yl)amino)-N-(3-hydroxy-2,6-dimethylphenyl)thiazole-5-carboxamide] | Y (>20 fold) | > 5 µM |
| < 0.05 µM | > 11 µM | X (100-<1000 fold) | < 0.1 µM | Cc1ccc(O)c(C)c1NC(=O)c1cnc(Nc2ccccn2)s1 [BAA-421, N-(3-hydroxy-2,6-dimethylphenyl)-2-(pyridin-2-ylamino)thiazole-5-carboxamide] | Y (>20 fold) | 0.5 to 5 µM |
| < 0.05 µM | 1 to 11 µM | X (100-<1000 fold) | < 0.1 µM | Cc1ccnc(Nc2ncc(C(=O)Nc3c(C)ccc(O)c3C)s2)c1 [BAA-422, N-(3-hydroxy-2,6-dimethylphenyl)-2-((4-methylpyridin-2-yl)amino)thiazole-5-carboxamide] | Y (>20 fold) | 0.5 to 5 µM |
| < 0.05 µM | > 11 µM | Y (1000-5000 fold) | < 0.1 µM | Cc1ccnc(Nc2ncc(C(=O)Nc3c(C)ccc(O)c3C)s2)c1F [BAA-424, 2-((3-fluoro-4-methylpyridin-2-yl)amino)-N-(3-hydroxy-2,6-dimethylphenyl)thiazole-5-carboxamide] | Y (>20 fold) | > 5 µM |
